Each block holds one compound with its values, some of them ahead of it.
Legend:
[1] = system: HIV; conditions: racemic mixture; cited from earlier work
[2] = below 130° C.
[3] = solubility values greater than 100 mg/mL are considered highly soluble
Description: Equilibrium Solubility: Equilibrium solubility values were obtained using an excess of solid in a stoppered flask shaken in a temperature-controlled water bath at 25 C for 52 hours. Residual solid material was identified postequilibrium by hot-stage microscopy and PXRD. The supernatant was filtered across 0.45-μm membrane filters prior to dilution for HPLC analysis.

[4] = heated to 160° C., cooled to 25° C., reheated at 10° C./min
Description: Thermal events for Form I (−)-cis-FTC upon melting and subsequent cooling to room temperature were observed by DSC. A 5.5500 mg sample of Form I (−)-cis-FTC was heated to 160° C., that is just above the melting temperature for Form I, and then cooled back to 25° C.

[5] = hand trituration 5 minutes or Fitzpatrick mill; DSC and PXRD
Description: Milling: (−)-cis-FTC was milled in a Fitzpatrick mill at high speed (4000 RPM), hammers forward with a 000-band screen. The drug was passed through the filter once and collected in a plastic bag.
Two batches of milled Form I (−)-cis-FTC were prepared: one by hand trituration in a mortar and pestle for 5 minutes, another by milling in a Fitzpatrick mill.

[6] = system: HIV; conditions: cited from earlier work

Structure (SMILES): Nc1ccn(C2CSC(CO)O2)c(=O)n1 (racemic) [BCH-189, 2-hydroxymethyl-5-(cytosin-1-yl)-1,3-oxathiolane]
activity against HIV relative to AZT [1]: approximately the same activity against HIV as AZT

thermodynamic stability among phases [2]: most stable phase | solubility category [3]: highly soluble | change in potency by HPLC [4]: no change in potency | effect of milling on crystal form [5]: does not affect the crystal form
Structure (SMILES): Nc1nc(=O)n([C@@H]2CS[C@H](CO)O2)cc1F [Form I, β-L-2-hydroxymethyl-5-(5-fluorocytosin-1-yl)-1,3-oxathiolane]

Structure (SMILES): Nc1nc(=O)n([C@@H]2CS[C@H](CO)O2)cc1F [(−)-(cis)-FTC, 4-amino-5-fluoro-1-(2-(hydroxymethyl)-1,3-oxathiolan-5-yl)-2(1H)-pyrimidinone (2R-cis)]
HIV activity [6]: potent

— US8637535B2, “Polymorphic and other crystalline forms of cis-FTC” (Gilead Sciences, Inc., priority 2001, dated 2014)
